The text below walks through data of US12084399B2, “Crystalline tranilast salts and their pharmaceutical use” (NUFORMIX TECHNOLOGIES LIMITED, priority 2018, dated 2024).

The nature of data set [1]: Dissolution study in 5% aqueous dextrose solution. It is filed as physicochemical. Particulars: saline or isotonic, thermodynamic from solid, 50 ml 5% aqueous dextrose solution. The procedure:
As this invention also relates to a method of preparing a liquid pharmaceutical formulation of tranilast for delivery, for example, as an injectable formulation, a liquid oral formulation or a nebulised inhaled formulation a study was also carried out to explore the dissolution rates of the crystalline tranilast salts of this invention in a suitable media. As liquid pharmaceutical formulations are usually made up in-situ at the bedside for immediate delivery it is important that these new solid forms of tranilast dissolve almost instantaneously for them to be suitable for use in a liquid pharmaceutical formulation. Whilst liquid oral formulations could be achieved by simply dissolving a drug in water prior to administration (the high aqueous solubility of the new crystalline tranilast salts would make this possible), a liquid formulation for inhaled or intravenous delivery requires the dissolution media to be isotonic. This is often achieved by using saline (0.9% sodium chloride in water) as the liquid formulation media. […] An alternative isotonic media suitable for preparing liquid pharmaceutical formulations for inhaled or intravenous administration is 5% aqueous dextrose solution. […] The results of this study can be seen in FIG. 41.

The conditions of data set [2]: carboxylic acid group of tranilast; cited from earlier work.
For data set [3] the following is noted: cited from earlier work.
For data set [4] the following is noted: 600 mg daily dosage, inter-patient variation; cited from earlier work.
For data set [5] the following is noted: dissolved or stored in solution, UV exposure; cited from earlier work.
For data set [6] the following is noted: exposed to light, listed as pure crystalline tranilast; cited from earlier work.

≈ marks a conversion by molar mass, not a printed value.

Take `COc1ccc(/C=C/C(=O)Nc2ccccc2C(=O)O)cc1OC` [Tranilast, 2-[[3-(3,4-dimethoxyphenyl)-1-oxo-2-propenyl]amino] benzoic acid]: the solubility (in general, how much of the substance goes into solution per volume) at 1 minute in data set [1] (1 minute) was determined as 1 µg/mL (≈ 3.05 µM). Further, the concentration in solution in data set [1] (1 hour) (solubility at 1 hour) was 60 µg/mL (≈ 183 µM). In data set [2], the pKa (usually the pH at which an ionisable group is half protonated) is on record as 3.25. The “solubility in pH 1.2 buffer solution” value in data set [3] (pH 1.2 buffer solution) is recorded as 0.7 μg/ml. In data set [3] (water), the solubility in water is 14.5 µg/mL (≈ 44.3 µM). For the same molecule, the Solubility (in general, the dissolved amount per volume that the medium holds) in data set [3] (water, comparative literature value in Table 16) was 14.5 µg/mL (≈ 44.3 µM). In data set [4], the “plasma concentrations of the drug” value was 30 to 300 µM. For the same molecule, the “photochemical stability in solution (in words)” value in data set [5] was “photochemically unstable”. Further, the “solid-state photostability (in words)” value in data set [6] was “photostable”.
